Measurements: US7750169B2 (Biocodex, priority 2008, dated 2010)

Test: particle size distribution measured under wet conditions (Malvern Mastersizer 2000 SM)
Format: physicochemical
Conditions: stiripentol particles of Example 1 after double recrystallization from toluene
Description: This particle size distribution is measured under wet conditions.

With `CC(C)(C)C(O)/C=C/c1ccc2c(c1)OCO2` (stereo not shown) [stiripentol, 4-dimethyl-1-[(3,4-methylenedioxy)-phenyl]-1-penten-3-ol] the “Diameter of 90% of the particles (d90)” value was no more than 250 μm.
